{
  "source": "patent US20230079439A1",
  "about": "“Compositions and Methods for Enhancing Beta Cell Maturation, Health and Function” (THE REGENTS OF THE UNIVERSITY OF CALIFORNIA, priority 2016, published 2023)",
  "test_system": "INS-1E cells",
  "test": "Insulin content (RIA) of INS-1E lysates",
  "type": "cell-based, rat",
  "settings": "24 h",
  "procedure": "FIG. 7, comprising FIG. 7A through FIG. 7G, depicts the evaluation of the biological activity of HSA-28P in INS-1E cells. FIG. 7A depicts dose-response analysis of the effect of HSA-28P on the rate of insulin secretion in INS-1E cells. The INS-1E cells were grown and trypsinized as described in Methods. Subsequently, cells were mixed with the indicated concentrations of HSA-28P (red columns), non-relevant peptide nanoparticles (NRPNP, green columns), and naked nanoparticles (NP, blue columns) and were seeded in 12-well plates. After 24 h the cells were taken to a GSIS in the presence of 2.5 mM (weak color bars) or 16.7 mM (strong color bars) glucose. […] INS-1E cells were treated as described in Panel D. Cells were detached by trypsin and counted as described in Methods and then were visualized with a Cells Sense Live Imaging microscope. […]\nThe lysis buffer contained 50 mmol/L Tris-HCl, pH 7.5, 1 mmol/L EDTA, 1 mmol/L EGTA, 1 mmol/L Na3VO4, 150 mmol/L NaCl, 50 mmol/L NaF, 10 mmol/L sodium-glycerophosphate, 5 mmol/L sodium pyrophosphate, and 1 mmol/L PMSF, supplemented with 0.1% (v/v) IGEPAL, 0.1% (v/v) 2-β-mercaptoethanol, and protease inhibitor cocktail (1:100 dilution). […] Protein content in the supernatant was determined by Bradford analysis, using a BSA standard dissolved in the same buffer. […]",
  "note": "Ends that are not written are not given here.",
  "data": [
    {"substance": "HSA-112: HSA-28 dimer formed by bridging two HSA-28 monomers via amide bond formation with active ester PEG2,000 (QQGEFLNYD-NH2; not fully specified (N-terminus); also: dimer of two HSA-28 monomers bridged via amide bonds with active ester PEG2000)", "values": [
      {"measurement": "effect on cellular / total insulin content", "result": "did not affect the cellular insulin content"}
    ]}
  ]
}
